Measured values published in patent US11292799B2, “Substituted azetidine dihydrothienopyrimidines and their use as phosphodiesterase inhibitors” (UNION therapeutics A/S, priority 2017, dated 2022).

Key:
[1] = target: human PDE4D catalytic domain (Homo sapiens (Human), UniProt Q08499); assay: PDE4 assay (TR-FRET, cAMP cleavage); format: biochemical; conditions: read-out: PDE4 IC50 range
Experimental: The human PDE4D catalytic domain (UniProt no. Q08499 [[…]]) was incubated with a mixture of non-labelled cAMP (cyclic adenosine monophosphate) and fluorescein amidite (FAM) conjugated cAMP and titrated test or reference compound. Following brief incubation the enzymatic reaction was stopped by addition of binding buffer containing nanoparticles with immobilized trivalent metal ions capable of binding 1) AMP phospho groups and 2) terbium (Tb) donor fluorophores. Subsequent excitation of the Tb donor triggers time-resolved FRET to adjacent FAM acceptor molecules resulting in light emission. In the presence of a PDE4 inhibitor, AMP generation was reduced resulting in a lower fluorescence signal. The cAMP phosphodiester is not bound by the detection system.
The results were calculated as the molar concentrations resulting in 50% inhibition of the substrate cleavage compared to controls samples, and are expressed as IC50 (nM).

[2] = test system: TNF-α release, human peripheral blood mononuclear cells (PBMC); assay: TNF-α release in LPS-stimulated PBMC; format: cell-based; conditions: lipopolysaccharide stimulation for 18 hours, read-out: TNF-α IC50 range
Experimental: Human peripheral blood mononuclear cells (PBMC) were isolated from buffy coats. The blood is mixed with saline at a ratio of 1:1, and the PBMC were isolated using Lymphoprep Tubes™ (Nycomed, Norway). The PBMC were suspended in RPMI1640 with 0.5% human serum albumin, pen/strep and 2 mM L-glutamine at a concentration of 5×105 c/ml. The cells were pre-incubated for 30 minutes with the test compounds in 96 well tissue culture plates and stimulated for 18 hours with lipopolysaccharide […] (Sigma). TNF-α concentration in the supernatants was measured using homogeneous time-resolved fluorescence resonance (TR-FRET). The assay is quantified by measuring fluorescence at 665 nm (proportional to TNF-α concentration) and 620 nm (control).
Results were expressed as IC50 values calculated from inhibition curves using as positive controls the secretion in LPS stimulated wells and as negative controls the secretion in unstimulated cells.

human PDE4D catalytic domain, sequence (Q08499 380-740 limits assumed): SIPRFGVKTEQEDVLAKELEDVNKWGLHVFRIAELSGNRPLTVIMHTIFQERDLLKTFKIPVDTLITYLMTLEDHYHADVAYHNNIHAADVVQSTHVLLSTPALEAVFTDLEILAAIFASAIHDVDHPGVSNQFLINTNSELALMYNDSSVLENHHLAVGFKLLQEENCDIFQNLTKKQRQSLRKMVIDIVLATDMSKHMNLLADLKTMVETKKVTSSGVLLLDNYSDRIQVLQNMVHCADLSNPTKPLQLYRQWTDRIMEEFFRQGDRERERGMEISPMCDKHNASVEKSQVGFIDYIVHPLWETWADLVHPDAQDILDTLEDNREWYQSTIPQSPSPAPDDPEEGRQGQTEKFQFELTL

SMILES	IC50 [1] [nM]	IC50 [2] [nM]
[O-][S+]1CCc2nc(N3CC(c4ccccc4)C3)nc(NC3CCOCC3)c21 (stereo in doubt) [Example 1, (R)-2-(3-Phenylazetidin-1-yl)-4-((tetrahydro-2H-pyran-4-yl)amino)-6,7-dihydrothieno[3,2-d]pyrimidine 5-oxide]	< 10	< 10
[O-][S+]1CCc2nc(N3CC(Oc4ccccc4)C3)nc(NC3CCOCC3)c21 (stereo in doubt) [Example 2, (R)-2-(3-Phenoxyazetidin-1-yl)-4-((tetrahydro-2H-pyran-4-yl)amino)-6,7-dihydrothieno[3,2-d]pyrimidine 5-oxide]	< 10	< 10
[O-][S+]1CCc2nc(N3CC(Oc4ccc(F)cc4)C3)nc(NC3CCOCC3)c21 (stereo in doubt) [Example 3, (R)-2-(3-(4-Fluorophenoxy)azetidin-1-yl)-4-((tetrahydro-2H-pyran-4-yl)amino)-6,7-dihydrothieno[3,2-d]pyrimidine 5-oxide]	< 10	< 10
[O-][S+]1CCc2nc(N3CC(c4ccc(F)cc4)C3)nc(NC34CC(C3)C4)c21 (stereo in doubt) [Example 9, (R)-4-(Bicyclo[1.1.1]pentan-1-ylamino)-2-(3-(4-fluorophenyl)azetidin-1-yl)-6,7-dihydrothieno[3,2-d]pyrimidine 5-oxide]	< 10	< 10
[O-][S+]1CCc2nc(N3CC(Oc4ccc(F)cc4)C3)nc(NC34CC(C3)C4)c21 (stereo in doubt) [Example 10, (R)-4-(Bicyclo[1.1.1]pentan-1-ylamino)-2-(3-(4-fluorophenoxy)azetidin-1-yl)-6,7-dihydrothieno[3,2-d]pyrimidine 5-oxide]	< 10	< 10
[O-][S+]1CCc2nc(N3CC(c4ccccc4)C3)nc(NC34CC(C3)C4)c21 (stereo in doubt) [Example 11, (R)-4-(Bicyclo[1.1.1]pentan-1-ylamino)-2-(3-phenylazetidin-1-yl)-6,7-dihydrothieno[3,2-d]pyrimidine 5-oxide]	< 10	< 10
[O-][S+]1CCc2nc(N3CC(c4ccccn4)C3)nc(NC34CC(C3)C4)c21 (stereo in doubt) [Example 12, (R)-4-(Bicyclo[1.1.1]pentan-1-ylamino)-2-(3-(pyridin-2-yl)azetidin-1-yl)-6,7-dihydrothieno[3,2-d]pyrimidine 5-oxide]	10 to 50	10 to 50
[O-][S+]1CCc2nc(N3CC(c4cccc(F)c4)C3)nc(NC34CC(C3)C4)c21 (stereo in doubt) [Example 13, (R)-4-(Bicyclo[1.1.1]pentan-1-ylamino)-2-(3-(3-fluorophenyl)azetidin-1-yl)-6,7-dihydrothieno[3,2-d]pyrimidine 5-oxide]	< 10	< 10
[O-][S+]1CCc2nc(N3CC(Oc4cccnc4)C3)nc(NC34CC(C3)C4)c21 (stereo in doubt) [Example 14, (R)-4-(Bicyclo[1.1.1]pentan-1-ylamino)-2-(3-(pyridin-3-yloxy)azetidin-1-yl)-6,7-dihydrothieno[3,2-d]pyrimidine 5-oxide]	< 10	10 to 50
O=S1(=O)CCC(Nc2nc(N3CC(c4ccccc4)C3)nc3c2[S+]([O-])CC3)CC1 (stereo in doubt) [Example 17, (5R)—N-(1,1-Dioxothian-4-yl)-5-oxido-2-(3-phenylazetidin-1-yl)-6,7-dihydrothieno[3,2-d]pyrimidin-4-yl-amine]	–	< 10
O=S1(=O)CC(Nc2nc(N3CC(c4ccccc4)C3)nc3c2[S@+]([O-])CC3)C1 [Example 4, (R)-3-((5-Oxido-2-(3-phenylazetidin-1-yl)-6,7-dihydrothieno[3,2-d]pyrimidin-4-yl)amino)thietane 1,1-dioxide]	–	10 to 50
COC(=O)N1CC[C@H](Nc2nc(N3CC(c4ccccc4)C3)nc3c2[S@+]([O-])CC3)C1 [Example 5, Methyl (3S)-3-(((5R)-5-oxido-2-(3-phenylazetidin-1-yl)-6,7-dihydrothieno[3,2-d]pyrimidin-4-yl)amino)pyrrolidine-1-carboxylate]	10 to 50	10 to 50
COC(=O)N1CC[C@@H](Nc2nc(N3CC(c4ccccc4)C3)nc3c2[S@+]([O-])CC3)C1 [Example 6, Methyl (3R)-3-(((5R)-5-Oxido-2-(3-phenylazetidin-1-yl)-6,7-dihydrothieno[3,2-d]pyrimidin-4-yl)amino)pyrrolidine-1-carboxylate]	< 10	< 10
COC(=O)N1CCC[C@@H](Nc2nc(N3CC(Oc4ccc(F)cc4)C3)nc3c2[S@+]([O-])CC3)C1 [Example 7, Methyl (3R)-3-(((5R)-2-(3-(4-Fluorophenoxy)azetidin-1-yl)-5-oxido-6,7-dihydrothieno[3,2-d]pyrimidin-4-yl)amino)piperidine-1-carboxylate]	< 10	< 10
COC(=O)N1CCC[C@H](Nc2nc(N3CC(Oc4ccc(F)cc4)C3)nc3c2[S@+]([O-])CC3)C1 [Example 8, Methyl (3S)-3-(((5R)-2-(3-(4-Fluorophenoxy)azetidin-1-yl)-5-oxido-6,7-dihydrothieno[3,2-d]pyrimidin-4-yl)amino)piperidine-1-carboxylate]	< 10	< 10
CC1(Nc2nc(N3CC(c4ccccn4)C3)nc3c2[S@+]([O-])CC3)CCC1 [Example 15, (R)-4-((1-Methylcyclobutyl)amino)-2-(3-(pyridin-2-yl)azetidin-1-yl)-6,7-dihydrothieno[3,2-d]pyrimidine 5-oxide]	< 10	< 10
CC1(Nc2nc(N3CC(c4cccnc4)C3)nc3c2[S@+]([O-])CC3)CCC1 [Example 16, (R)-4-((1-Methylcyclobutyl)amino)-2-(3-(pyridin-3-yl)azetidin-1-yl)-6,7-dihydrothieno[3,2-d]pyrimidine 5-oxide]	10 to 50	10 to 50
